Literature values as cited in US8329742B2, “Macrocyclic compounds useful as pharmaceuticals” (EISAI Co., Ltd., priority 2002, dated 2012).

Assays:
[1] = target: Map/Erk kinase (MEK) (Homo sapiens, UniProt Q02750)
[2] = susceptible to enone isomerization in mouse and human plasma

Chain of Map/Erk kinase (MEK) (Q02750 whole entry): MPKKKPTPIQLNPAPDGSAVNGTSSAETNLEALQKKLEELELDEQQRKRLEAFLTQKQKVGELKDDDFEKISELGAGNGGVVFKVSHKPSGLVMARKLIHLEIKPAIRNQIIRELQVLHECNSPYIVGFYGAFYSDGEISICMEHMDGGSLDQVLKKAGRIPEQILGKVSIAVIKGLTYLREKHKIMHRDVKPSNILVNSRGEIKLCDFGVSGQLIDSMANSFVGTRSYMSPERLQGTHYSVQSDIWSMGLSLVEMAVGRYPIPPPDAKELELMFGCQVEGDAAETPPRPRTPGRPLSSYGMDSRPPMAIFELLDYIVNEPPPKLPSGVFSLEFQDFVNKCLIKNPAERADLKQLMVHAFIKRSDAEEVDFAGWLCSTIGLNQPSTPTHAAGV

- inhibition of Map/Erk kinase (MEK) [1]: inhibit
- biological stability [2]: biologically unstable
SMILES: COc1cc(O)c2c(c1)/C=C/C[C@H](O)[C@H](O)C(=O)/C=C\C[C@H](C)OC2=O [Compound F152]
